Target: T1, mouse Tas2r108 (Mus musculus, UniProt Q9JKT3)
T1 construct: expressed in transfected cells; host or cells: HEK293T-Gα16gust44
T1 sequence (Q9JKT3 1-297): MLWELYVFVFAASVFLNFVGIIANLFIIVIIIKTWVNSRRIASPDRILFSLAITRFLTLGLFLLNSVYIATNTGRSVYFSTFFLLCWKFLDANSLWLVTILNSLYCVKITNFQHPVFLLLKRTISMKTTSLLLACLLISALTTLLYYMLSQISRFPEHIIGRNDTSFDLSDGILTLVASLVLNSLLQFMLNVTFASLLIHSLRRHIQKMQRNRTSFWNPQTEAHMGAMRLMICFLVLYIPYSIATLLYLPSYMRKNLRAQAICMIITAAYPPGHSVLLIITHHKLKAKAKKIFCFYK
Assay: Calcium imaging assay (FLIPR), HEK293T-Gα16gust44 cells transfected with mouse Tas2r108
Format: cell-based
Details: for Δ F/F: Tas2r108
Description: This set of bile acids was chosen because of their commercial availability in high purities, their diversity within the class of bile acids and their previous detection and quantitation in human blood. Stock solutions were prepared in DMSO.
As basal growth medium for the HEK293T-Gα16gust44 cell line[17],[59] served Dulbecco’s modified eagle medium (DMEM) (Thermo Fisher Scientific, Darmstadt, Germany) supplemented with 10 % fetal bovine serum (Sigma-Aldrich, Steinheim, Germany), 2 mM L-glutamine (Sigma-Aldrich, Steinheim, Germany), 100 units/ml penicillin (Sigma Aldrich, Steinheim, Germany) and 100 µg/ml streptomycin (Sigma Aldrich, Steinheim, Germany). Growth conditions were 37 °C, 5 % CO2 and saturated air-humidity[60].
HEK293T-Gα16gust44 cells were seeded on poly-D-lysine (10 µg/ml) coated 96-well plates to reach a confluence of 40-60 % the next day. For transient transfection 150 ng of plasmid DNA containing the receptor of interest and 0.3 µl lipofectamine 2000 (Thermo Fisher Scientific, Darmstadt, Germany) per well were used and transfection took place according to the manual of lipofectamine 2000. […] The empty vector DNA (mock) was transfected as negative control[14],[41].
Cells were loaded using the calcium-sensitive fluorescent dye Fluo-4-AM (Abcam, Cambridge, Great Britain) in the presence of 2.5 mM probenecid (Sigma-Aldrich, Steinheim, Germany) the day after transfection[13],[41]. 1 h after loading, cells were washed with C1 buffer using a BioTek Cell Washer, incubated in the dark for half an hour and washed again. For automated agonist application and measurement of fluorescence changes, a FLIPR^TETRA device (Molecular Devices, San José, United States) was used. Viability of cells was tested by application of 100 nM Somatostatin 14 (Bachem, Bubendorf, Switzerland)[42].
Measured data were negative control corrected by subtracting the signal of the mock-transfected cells and exported to Microsoft Excel using the FLIPR software ScreenWorks 4.2. In Microsoft Excel software, standardization of maximum fluorescence intensities to the basal fluorescence and normalization to the buffer-only control was done to calculate the relative fluorescence changes (ΔF/F).
Initial screening experiments performed in duplicate wells were confirmed by at least one replication and representative traces were selected for display. All dose-response relationships were determined by three independent experiments (biological replicates) performed in duplicates (technical replicates). Threshold concentrations, defined as lowest substance concentrations leading to statistically significant elevated fluorescence changes in receptor-transfected cells compared with empty vector-transfected cells, were determined using SigmaPlot with Student’s t-test to evaluate statistical significance (p < 0.01).

With `C[C@H](CCC(=O)NCC(=O)O)[C@H]1CC[C@H]2[C@@H]3[C@H](O)C[C@@H]4C[C@H](O)CC[C@]4(C)[C@H]3C[C@H](O)[C@]12C` [Glycocholic Acid, glycocholic acid] the “Δ F/F” value (conc. 0,01 mM) was 0.0107, the “Δ F/F” value (conc. 0,1 mM) was 0.0182 and the “Δ F/F” value (conc. 0,03 mM) was 0.00676. The “Δ F/F” value (conc. 0,3 mM) was 0.06222, the “Δ F/F” value (conc. 0,001 mM) was 0.002806 and the “Δ F/F” value (conc. 1 mM) was 0.4313. For the same compound, the “Δ F/F” value (conc. 0,003 mM) was 0.003344, the RLU (Time 0 s) was 0 RLU and the RLU (Time 2 s) was 7.69 RLU. It also gave an RLU (Time 4 s) of 11.6885 RLU, an RLU (Time 6 s) of 14.9144 RLU and an RLU (Time 8 s) of 2.856 RLU. It also gave an RLU (Time 12 s) of -20.1582 RLU, an RLU (Time 14 s) of -24.1348 RLU and an RLU (Time 16 s) of -22.3266 RLU. For the same compound, the RLU (Time 18 s) was -18.1852 RLU, the RLU (Time 137.562 s) was 194.213 RLU and the RLU (Time 143.562 s) was 209.767 RLU. It also gave an RLU (Time 149.562 s) of 181.475 RLU, an RLU (Time 155.562 s) of 183.974 RLU and an RLU (Time 161.562 s) of 173.161 RLU. It also gave an RLU (Time 167.562 s) of 179.231 RLU, an RLU (Time 173.562 s) of 187.201 RLU and an RLU (Time 179.562 s) of 174.25 RLU. For the same compound, the RLU (Time 185.562 s) was 178.039 RLU, the RLU (Time 191.562 s) was 190.798 RLU and the RLU (Time 197.562 s) was 173.368 RLU. It also gave an RLU (Time 203.562 s) of 190.575 RLU, an RLU (Time 209.562 s) of 197.772 RLU and an RLU (Time 215.562 s) of 163.432 RLU. It also gave an RLU (Time 221.562 s) of 153.254 RLU, an RLU (Time 227.562 s) of 164.71 RLU and an RLU (Time 233.562 s) of 163.97 RLU. The RLU (Time 239.562 s) was 147.809 RLU, the RLU (Time 245.562 s) was 173.351 RLU and the RLU (Time 293.562 s) was 149.968 RLU. The RLU (Time 299.562 s) was 165.311 RLU, the RLU (Time 305.562 s) was 159.539 RLU and the RLU (Time 311.562 s) was 142.659 RLU. For the same compound, the RLU (Time 317.562 s) was 150.371 RLU, the RLU (Time 323.562 s) was 171.186 RLU and the RLU (Time 329.562 s) was 175.087 RLU. The RLU (Time 335.562 s) was 172.597 RLU, the RLU (Time 341.562 s) was 183.065 RLU and the RLU (Time 347.562 s) was 201.017 RLU. The RLU (Time 353.562 s) was 156.745 RLU, the RLU (Time 359.562 s) was 154.549 RLU and the “Activation threshold concentration Tas2r108” value (p < 0.01 vs empty vector) was 100 µM. For the same compound, the RLU (time 18.797 s) was -15.9795 RLU, the RLU (time 20.797 s) was -38.1063 RLU and the RLU (time 22.797 s) was -53.0656 RLU. For the same compound, the RLU (time 24.797 s) was -41.093 RLU, the RLU (time 26.797 s) was 10.1284 RLU and the RLU (time 28.797 s) was -11.2259 RLU. The RLU (time 30.797 s) was 42.3249 RLU, the RLU (time 32.797 s) was 14.625 RLU and the RLU (time 34.797 s) was 31.6874 RLU. It also gave an RLU (time 36.797 s) of 61.9173 RLU, an RLU (time 38.797 s) of 95.7369 RLU and an RLU (time 40.797 s) of 96.8837 RLU. For the same compound, the RLU (time 42.797 s) was 120.977 RLU, the RLU (time 44.797 s) was 126.004 RLU and the RLU (time 46.797 s) was 150.942 RLU. It also gave an RLU (time 48.797 s) of 139.074 RLU, an RLU (time 50.797 s) of 165.429 RLU and an RLU (time 52.797 s) of 178.894 RLU. For the same compound, the RLU (time 54.797 s) was 165.569 RLU, the RLU (time 56.797 s) was 184.08 RLU and the RLU (time 58.797 s) was 203.839 RLU. For the same compound, the RLU (time 60.797 s) was 208.856 RLU, the RLU (time 62.797 s) was 198.008 RLU and the RLU (time 64.797 s) was 192.835 RLU. The RLU (time 66.797 s) was 228.59 RLU, the RLU (time 68.797 s) was 198.902 RLU and the RLU (time 70.797 s) was 190.075 RLU. It also gave an RLU (time 72.797 s) of 224.267 RLU, an RLU (time 74.797 s) of 237.802 RLU and an RLU (time 76.797 s) of 195.521 RLU. It also gave an RLU (time 78.797 s) of 205.632 RLU, an RLU (time 80.797 s) of 224.221 RLU and an RLU (time 82.797 s) of 233.724 RLU. It also gave an RLU (time 84.797 s) of 213.598 RLU, an RLU (time 86.797 s) of 226.297 RLU and an RLU (time 88.797 s) of 230.997 RLU. For the same compound, the RLU (time 90.797 s) was 224.416 RLU, the RLU (time 92.797 s) was 254.391 RLU and the RLU (time 94.797 s) was 247.364 RLU. For the same compound, the RLU (time 96.797 s) was 231.951 RLU, the RLU (time 98.797 s) was 231.597 RLU and the RLU (time 100.797 s) was 210.393 RLU. The RLU (time 102.797 s) was 230.574 RLU, the RLU (time 104.797 s) was 222.002 RLU and the RLU (time 106.797 s) was 222.39 RLU. For the same compound, the RLU (time 108.797 s) was 212.16 RLU, the RLU (time 110.797 s) was 216.252 RLU and the RLU (time 112.797 s) was 216.052 RLU. For the same compound, the RLU (time 114.797 s) was 221.895 RLU, the RLU (time 116.797 s) was 215.342 RLU and the RLU (time 118.797 s) was 209.462 RLU. The RLU (time 120.797 s) was 222.728 RLU, the RLU (time 122.797 s) was 206.205 RLU and the RLU (time 124.797 s) was 193.188 RLU. For the same compound, the RLU (time 126.797 s) was 207.494 RLU, the RLU (time 128.797 s) was 210.082 RLU and the RLU (time 130.797 s) was 216.943 RLU. The RLU (time 132.797 s) was 210.174 RLU, the RLU (time 134.797 s) was 194.975 RLU and the RLU (time 136.797 s) was 218.165 RLU.

In the case of `C[C@H](CCC(=O)O)[C@H]1CC[C@H]2[C@@H]3[C@@H](O)C[C@@H]4C[C@H](O)CC[C@]4(C)[C@H]3CC[C@]12C` [Ursodeoxycholic Acid, ursodeoxycholic acid], the “Receptor response Tas2r108” value (screening) is reported as “does not respond”.

— publication PMC10247784, “Physiological activation of human and mouse bitter taste receptors by bile acids” (Communications Biology, 2023)
